Source: patent US8729034B2, “Pharmaceutical composition having virucidal and spermicidal activity” (priority 2007, dated 2014)
Several values for one entry are separate records, joined by “and”; a condition that tells them apart may be missing. Identical values can stand only once. Like-named read-outs stand apart in the source and are kept apart here.

How the values were obtained:
Format in all cases: cell-based
human sperm [1] = test: Electron microscopy of treated sperm (TEM/SEM); conditions: Ac-B-treated human sperm
Description: For electron microscopy, the suspending medium was replaced with 0.1M phosphate buffer (pH 7.0). A concentrated untreated (control) and Ac-B-treated (experimental) human sperm suspension were mixed with 2% glutaraldehyde in phosphate buffer for fixation at 4 degree C. for 4 hours. After three successive washings in buffer at room temperature, post-fixation was done by 1% osmium tetroxide. Thirty minutes after post-fixation, the spermatozoa were quickly washed with phosphate buffer and end block staining was done by saturated urenyl acetate solution. Dehydration of the fixed spermatozoa was done in graded (50%, 70%, 90% and 100%) ethyl alcohol. A portion of each set of dehydrated sperms were embedded in spur and blocks were prepared for ultra-thin sectioning. Ultra-thin sections were prepared in LKB Ultramicrotome using a diamond knife. Finally the thin sections were stained with urenyl acetate and freshly prepared lead citrate. The stained sections were thoroughly examined under TECHNI G2 BIOTWEEN transmission electron microscope (at ×25000). The rest of the dehydrated sperm sets were prepared for examination under tescan scanning electron microscope.

human spermatozoa [2] = test: Penetrak Test (bovine cervical mucus penetration test); conditions: treated at MEC, washed; 1 hour; BWW control about 27(±3) mm
Description: The bovine cervical mucus penetration test was performed using the Penetrak kit (Serono Diagnostics, Allentown, Pa.).
Working suspension of human spermatozoa, prepared as above was treated in vitro with Ac-B at MEC, washed and resuspended in pre-equilibrated BWW medium. For the negative control set, same treatment was given to the sperms in BWW medium. Flat-capillary tubes filled with periovulatory mid-cycle bovine cervical mucus, in duplicate, were thawed at room temperature for 30 minutes and snapped at the red score mark above the mucus meniscus. The cut end was placed in tube containing treated/control washed sperm suspension and placed inside a CO2 incubator for 1 hour. The capillary tubes were then taken out, cleaned to remove superficially attached sperms, placed on a calibrated slide and examined by phase contrast microscopy (at ×400). The vanguard sperm was located and the distance (in mm) covered by it was measured to score the penetrating capacity of a sperm of the test sets.

human sperm [3] = test: Live/dead staining (SYBR-14 / propidium iodide) of treated sperm
Description: Live/dead staining kit (Invitrogen: Paisley, UK), using SYBR-14 in combination with propidium iodide (PI) was used for the purpose.
The SYBR-14 was prepared in anhydrous methyl sulfoxide (DMSO) at a concentration of 1 mg/ml. A working solution of SYBR-14 diluted 1:10 with DMSO was used for staining the sperm. The PI was dissolved in Tyrode's salt solution at 2 mg/ml.
The human sperm samples, pre-treated without (control) or with Ac-B (experimental) and Nonoxynol 9 (positive control) were incubated for 15 min at 36 degree C. before examination. […] The fluorescent staining of sperm was monitored and photographed with a Zeiss Axiophot epifluorescent microscope (Carl Zeiss Inc., Thornwood, N.Y.) equipped with a fluorescein isothiocyanate filter set (Zeiss #487909).
Viability of Ac-B-treated human spermatozoa was evaluated using a dual fluorescent live/dead staining kit (Invitrogen; Paisley, UK) consisting of SYBR 14 and propidium iodide (PI). PI cannot penetrate living cells but can bind to and stain cellular DNA in damaged cells giving them red fluorescence. On completion of staining reaction, proportionate distribution of green (live) and red (dead) stained spermatozoa was recorded using dual emission filter for SYBR14 and propidium iodide. In the control set all sperms were stained green but the Ac-B-treated spermatozoa (125 mcg/ml) were stained red.

human spermatozoa [4] = test: Sander & Cramer spermicidal assay (in vitro)
Description: The exudates/liquefied human semen samples were suspended in BWW medium (pre equilibrated at 37 degree C.). The spermatozoa with forward motility were separated from immotile or sluggishly motile cells by the swim-up technique and were allowed to disperse evenly within a CO2 incubator at 37 degree C. At least five aliquots from each sample was used to prepare the working spermatozoa suspension. The swim up procedure was as follows:
Pre equilibrated BWW medium (1.25 ml) was gently layered over cauda-exudates or liquefied human semen (1 ml) in a sterile 15 ml conical-based centrifuge tube. The tube was inclined at an angle of 45 degree and incubated for 1 hour at 37 degree C. in a CO2-incubator. It was then gently returned to the upright position and the uppermost 1 ml medium with a turbid appearance was removed. This aliquot of motile cells was pooled from each set, then diluted with same volumes of pre equilibrated BWW medium, centrifuged at 500 g for 5 minutes and finally resuspended in 1 ml pre equilibrated BWW medium to obtain a working suspension. The sperm cells were counted in a Makler chamber (Zygotec Systems, Springfield, M A, USA) and finally a working spermatozoa suspension having concentration of 25 to 30×10^6 cells/ml was prepared.
For in vitro assay of spermicidal effect, sperms collected from proven male rats and mice, and motile spermatozoa from liquefied human semen were used.
The assay was done following the Sander & Cramer assay method. Two hundred micro liter (200 microliters) of working spermatozoa suspension was added to 1 ml solution of test material in BWW medium and mixed on a light vortex for 10 seconds. A wet mount was immediately prepared on a clean microscopy glass slide and examined (at ×100) under a phase contrast microscope (Leitz, Biomed). The weakest concentration that immobilized all spermatozoa within 20 seconds of mixing was recorded as MEC. At least five fields were examined for each wet mount preparation. The observation was repeated with five individual spermatozoa suspension for each concentration of test compound solution. For negative control, saponin solutions were replaced by equal volume of BWW medium, while Nonoxynol 9 was used as positive control.

HIV-1 NL-4.3 virus = conditions: for Percentage inhibition of hiv growth in CEM-GFP T cell line, Without Pretreatment: untreated virus
Description: Human CD4+ T cell line CEM-GFP cells were infected with HIV-1 NL-4.3 virus pretreated without or with Ac-B at varying concentrations (1 hour at 37 degree C.) at a multiplicity of infection (MOI) of 0.01. The cells were then cultured in the presence or absence of Ac-B for up to 7 days post infection. Virus production was analyzed in the culture supernatant on day-7 post infection by p24 antigen capture ELISA

Candida albicans = test: Effect on in vitro culture of Candida albicans for 24 hours; conditions: Ac-B 125 microgram per ml; PD agar
Description: Candida albicans spores were grown in vitro on Potato dextrose [PD] agar plates without (control) and with Ac-B at a concentration of 125 microgram per ml.

Substance: Acaciaside-B [Ac-B]
- Electron microscopic finding on plasma membrane (TEM) (human sperm [1]): vesiculization/vacuolization of the plasma membrane leading to its disintegration
- Penetration of vanguard sperm into bovine cervical mucus column (human spermatozoa [2]): capillary was devoid of sperm inside the mucus column
- Live/dead staining colour of treated spermatozoa (human sperm [3]; Ac-B 125 mcg/ml, green = live, red = dead): stained red
- Percentage of dead spermatozoa, Live/dead staining (human sperm [3]; human sperm pre-treated with Ac-B): 92 (±5)%
- MEC as per Sander and Cramer Test (human spermatozoa [4]; Human spermatozoa (N = 5), weakest concentration immobilizing all spermatozoa within 20 seconds): 125 microgram per ml and 125 (±7) microgram per ml
- EC50 for spermicidal activity in vitro (human spermatozoa [4]; human sperm): 22 microgram per ml
- MEC for spermicidal action (human spermatozoa [4]; human sperm): 125 microgram
- MEC for spermicidal activity (human spermatozoa [4]; human sperm): 125 micro g/ml
- MEC, spermicidal (human spermatozoa [4]; human sperm): 125 µg/mL
- Percentage inhibition of hiv growth in CEM-GFP T cell line, Without Pretreatment (HIV-1 NL-4.3 virus; Ac-B 0.1 microgram per ml, day-7 p24): 0%
- Percentage inhibition of hiv growth in CEM-GFP T cell line, Pretreatment with Ac-B (HIV-1 NL-4.3 virus; Ac-B 0.1 microgram per ml, virus pretreated 1 hour at 37 degree C, day-7 p24): 70.5%
- Percentage inhibition of hiv growth in CEM-GFP T cell line, Without Pretreatment (HIV-1 NL-4.3 virus; Ac-B 0.2 microgram per ml): 0%
- Percentage inhibition of hiv growth in CEM-GFP T cell line, Pretreatment with Ac-B (HIV-1 NL-4.3 virus; Ac-B 0.2 microgram per ml, virus pretreated): 77.8%
- Percentage inhibition of hiv growth in CEM-GFP T cell line, Without Pretreatment (HIV-1 NL-4.3 virus; Ac-B 0.25 microgram per ml): 0%
- Percentage inhibition of hiv growth in CEM-GFP T cell line, Pretreatment with Ac-B (HIV-1 NL-4.3 virus; Ac-B 0.25 microgram per ml, virus pretreated): 92%
- Percentage inhibition of hiv growth in CEM-GFP T cell line, Without Pretreatment (HIV-1 NL-4.3 virus; Ac-B 0.5 microgram per ml): 36.1%
- Percentage inhibition of hiv growth in CEM-GFP T cell line, Pretreatment with Ac-B (HIV-1 NL-4.3 virus; Ac-B 0.5 microgram per ml, virus pretreated): 90.6%
- Percentage inhibition of hiv growth in CEM-GFP T cell line, Without Pretreatment (HIV-1 NL-4.3 virus; Ac-B 1 microgram per ml): 60.5%
- Percentage inhibition of hiv growth in CEM-GFP T cell line, Pretreatment with Ac-B (HIV-1 NL-4.3 virus; Ac-B 1 microgram per ml, virus pretreated): 99.73%
- Percentage inhibition of hiv growth in CEM-GFP T cell line, Without Pretreatment (HIV-1 NL-4.3 virus; Ac-B 1.5 microgram per ml): 100%
- Percentage inhibition of hiv growth in CEM-GFP T cell line, Pretreatment with Ac-B (HIV-1 NL-4.3 virus; Ac-B 1.5 microgram per ml, virus pretreated): 100%
- Percentage inhibition of hiv growth in CEM-GFP T cell line, Without Pretreatment (HIV-1 NL-4.3 virus; Ac-B 2 microgram per ml): 100%
- Percentage inhibition of hiv growth in CEM-GFP T cell line, Pretreatment with Ac-B (HIV-1 NL-4.3 virus; Ac-B 2 microgram per ml, virus pretreated): 100%
- Percentage inhibition of hiv growth in CEM-GFP T cell line, Without Pretreatment (HIV-1 NL-4.3 virus; Ac-B 2.5 microgram per ml): 100%
- Percentage inhibition of hiv growth in CEM-GFP T cell line, Pretreatment with Ac-B (HIV-1 NL-4.3 virus; Ac-B 2.5 microgram per ml, virus pretreated): 100%
- Inhibition of viral transmission, untreated virus (HIV-1 NL-4.3 virus; cells infected with untreated virus, cultured in the presence of Ac-B 0.1 to 2.5 microgram per ml): only partial inhibition
- Number of Candida albicans colonies, presence vs absence of Ac-B (Candida albicans): no significant difference
- Sizes of individual Candida albicans colonies (Candida albicans): comparatively smaller
